Results as given in patent publication US8998396B2, “Treatment liquid for liquid jetting device, and cartridge containing the same” (Ricoh Company, Ltd., priority 2009, dated 2015).

Test: Surfactant solubility in the main solvent, judged visually
Format: physicochemical
Settings: main solvent: water, glycerin and 1,3-butylene glycol
Source text: The surfactant was solved into the main solvent and the solubility thereof was judged visually.
A: Solved completely (transparent and colorless)

Row | SMILES | Solubility in the main solvent (in words)
1 | CCCCCCCCN1CCCC1=O [LP-100, N-Octyl-2-Pyrrolidone] | solves in the main solvent
2 | CCCCCCCCCCCCN1CCCC1=O [LP-300, N-Dodecyl-2-Pyrrolidone] | cannot solve in the main solvent
